The conditions of series [1]: reported in Brandon et al. 2007; cited from earlier work.
The subject of series [2] is other PDE isoforms. Particulars: reported in Brandon et al. 2007; cited from earlier work.
Series [3] has as its target human PDE2A1 (Homo sapiens (Human), UniProt O00408). Nature of the series: PDE selectivity IMAP FP assay, human PDE2A1. It counts as biochemical. The note with it: Human PDE2. The method in brief: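 Compound titrations run against PDE2 in Tris HCl pH 7.2 buffer with MgCl2 and DTT for 60 min at room temperature, using 50 nM FAM-cAMP plus 1000 nM cGMP and enzyme giving 20% conversion.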

Series [4] deals with Rhesus PDE2A3 (Macaca mulatta, UniProt B3VTJ2). Put plainly: PDE2 fluorescence polarization (IMAP FP) assay, rhesus PDE2A3. The format is biochemical, rhesus macaque. (In fluorescence polarisation assays a small probe gives low polarisation when free and higher when bound to something large.)
Setting [5] is: Lab A, read-out: Human PDE2 Ki (nM) Lab A.
[6] abbreviates: Lab B, read-out: Human PDE2 Ki (nM) Lab B.
[7] abbreviates: Lab A, read-out: Rhesus PDE2 Ki (nM) Lab A.
Setting [8] is: Lab B, read-out: Rhesus PDE2 Ki (nM) Lab B.

The text below walks through data of patent publication US10174037B2, “Dihydropyrazolopyrimidinone compounds as PDE2 inhibitors” (Merck Sharp & Dohme Corp., priority 2015, dated 2019).

SMILES strings stand for the structures. Where two headings read alike, the source gives them in different places.

In general, Ki refers to a measure of affinity in units of concentration, obtained from inhibition or displacement.

human PDE2A1, sequence (O00408 other isoform, or with tags, fused parts or gaps): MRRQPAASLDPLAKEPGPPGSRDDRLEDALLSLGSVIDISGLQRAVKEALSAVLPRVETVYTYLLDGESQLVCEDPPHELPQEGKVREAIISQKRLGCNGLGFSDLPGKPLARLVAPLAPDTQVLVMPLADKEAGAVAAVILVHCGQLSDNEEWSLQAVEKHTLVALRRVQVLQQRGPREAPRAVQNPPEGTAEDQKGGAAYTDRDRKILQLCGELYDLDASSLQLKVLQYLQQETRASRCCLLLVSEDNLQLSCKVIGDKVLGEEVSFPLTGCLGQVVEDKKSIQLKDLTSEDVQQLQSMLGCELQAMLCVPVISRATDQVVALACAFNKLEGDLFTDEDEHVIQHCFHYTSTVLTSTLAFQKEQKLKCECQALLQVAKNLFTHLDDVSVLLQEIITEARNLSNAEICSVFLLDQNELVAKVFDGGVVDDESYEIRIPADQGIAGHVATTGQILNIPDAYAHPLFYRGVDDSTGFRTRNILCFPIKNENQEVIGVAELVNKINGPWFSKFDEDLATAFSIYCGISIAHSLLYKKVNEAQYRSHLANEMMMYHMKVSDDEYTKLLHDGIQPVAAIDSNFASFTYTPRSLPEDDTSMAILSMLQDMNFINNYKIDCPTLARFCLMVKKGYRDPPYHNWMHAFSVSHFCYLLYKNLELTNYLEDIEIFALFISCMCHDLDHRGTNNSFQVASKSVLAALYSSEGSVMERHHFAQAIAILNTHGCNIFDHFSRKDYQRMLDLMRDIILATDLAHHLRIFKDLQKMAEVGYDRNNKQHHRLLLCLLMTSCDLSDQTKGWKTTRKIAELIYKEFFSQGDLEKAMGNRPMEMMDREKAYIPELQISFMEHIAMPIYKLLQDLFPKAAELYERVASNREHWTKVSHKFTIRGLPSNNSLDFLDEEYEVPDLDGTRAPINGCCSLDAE
Rhesus PDE2A3, sequence (B3VTJ2 1-941): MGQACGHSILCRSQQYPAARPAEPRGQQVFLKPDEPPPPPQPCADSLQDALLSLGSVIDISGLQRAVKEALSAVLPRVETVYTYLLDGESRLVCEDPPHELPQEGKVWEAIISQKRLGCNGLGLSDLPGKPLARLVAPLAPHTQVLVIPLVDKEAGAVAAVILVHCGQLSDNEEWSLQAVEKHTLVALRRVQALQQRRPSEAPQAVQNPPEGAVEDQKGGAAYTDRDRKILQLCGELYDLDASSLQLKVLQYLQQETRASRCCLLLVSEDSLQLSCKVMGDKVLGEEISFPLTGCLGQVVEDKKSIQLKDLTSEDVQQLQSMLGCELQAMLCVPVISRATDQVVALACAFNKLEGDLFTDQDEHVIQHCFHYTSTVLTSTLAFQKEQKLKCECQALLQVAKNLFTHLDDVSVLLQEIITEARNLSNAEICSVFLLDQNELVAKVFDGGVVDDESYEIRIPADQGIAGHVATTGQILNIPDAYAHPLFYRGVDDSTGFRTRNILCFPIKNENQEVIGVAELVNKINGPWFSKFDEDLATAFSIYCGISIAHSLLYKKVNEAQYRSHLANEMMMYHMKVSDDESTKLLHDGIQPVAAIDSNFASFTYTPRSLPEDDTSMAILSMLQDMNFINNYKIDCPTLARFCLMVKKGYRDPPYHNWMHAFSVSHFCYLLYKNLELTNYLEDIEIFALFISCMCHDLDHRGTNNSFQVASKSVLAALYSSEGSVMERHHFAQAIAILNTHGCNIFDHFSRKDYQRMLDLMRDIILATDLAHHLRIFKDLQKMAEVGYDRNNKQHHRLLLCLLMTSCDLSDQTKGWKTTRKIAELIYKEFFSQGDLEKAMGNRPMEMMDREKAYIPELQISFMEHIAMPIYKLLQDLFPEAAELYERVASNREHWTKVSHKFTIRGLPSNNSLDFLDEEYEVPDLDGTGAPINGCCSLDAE

For `COc1ccc(Cc2nn3c([C@@H](CCCc4ccccc4)[C@@H](C)O)nc(C)c3c(=O)[nH]2)cc1OC` [BAY 60-7550], the brain penetration entry in series [1] was “limited”. Further, the “potency at other PDE isoforms” value in series [2] is on record as “significant potency”.

Take `O=c1[nH]c(O)nc2c1c(CF)nn2C(c1ccc(C(F)(F)F)cc1)C1CC1` (stereo not drawn) [Example 39, 1-(Cyclopropyl(4-(trifluoromethyl)phenyl)methyl)-3-(fluoromethyl)-6-hydroxy-1H-pyrazolo[3,4-d]pyrimidin-4(5H)-one]: the Ki in series [3] (setting [5]) turned out to be 2.2 nM; in series [3] (setting [6]), 6.3 nM; in series [4] (setting [7]) it was 3.6 nM; in series [4] (setting [8]) it was 5.5 nM.

On to `CC(C)C(c1ccc(C(F)(F)F)cc1)n1nc(CF)c2c(=O)[nH]c(O)nc21` (stereo not drawn) [Example 40, 3-(Fluoromethyl)-6-hydroxy-1-(2-methyl-1-(4-(trifluoromethyl)phenyl)propyl)-1H-pyrazolo[3,4-d]pyrimidin-4(5H)-one], for which the Ki in series [3] (setting [5]) was 0.56 nM; in series [3] (setting [6]) it was 2.1 nM; in series [4] (setting [7]) it was 1.7 nM; in series [4] (setting [8]), 2 nM.

Turning to `CC(c1ccc(C(F)(F)F)cc1)n1nc(CF)c2c(=O)[nH]c(O)nc21` (stereo not drawn) [Example 41, 3-(Fluoromethyl)-6-hydroxy-1-{1-[4-(trifluoromethyl)phenyl]ethyl}-1,5-dihydro-4H-pyrazolo[3,4-d]pyrimidin-4-one], the Ki came out at 2.3 nM in series [3] (setting [5]) and 3.5 nM in series [4] (setting [7]).

`O=c1[nH]c(O)nc2c1c(CF)nn2C1(c2ccc(C(F)(F)F)cc2)CCC1` [Example 46, 3-(Fluoromethyl)-6-hydroxy-1-(1-(4-(trifluoromethyl)phenyl)cyclobutyl)-1H-pyrazolo[3,4-d]pyrimidin-4(5H)-one]: the values for the inhibitory constant (Ki) in series [3] (setting [6]) and in series [4] (setting [8]) were 9.2 nM and 11 nM, respectively.

Take `C[C@@H](c1ccc(C(C)(C)C)cc1)n1nc(CF)c2c(=O)[nH]c(O)nc21` [Example 47, (S)-1-(1-(4-tert-Butylphenyl)ethyl)-3-(fluoromethyl)-6-hydroxy-1H-pyrazolo[3,4-d]pyrimidin-4(5H)-one]: the figures for the Ki in series [3] (setting [6]) and in series [4] (setting [8]) were 5.1 nM and 6.9 nM, respectively.

For the compound `O=c1[nH]c(O)nc2c1c(CF)nn2[C@H](c1ccc(C(F)(F)F)c(F)c1)C1CC1` [Example 48, (S)-1-(Cyclopropyl(3-fluoro-4-(lrifluoromethyl)phenyl)methyl)-3-(fluoromethyl)-6-hydroxy-1H-pyrazolo[3,4-d]pyrimidin-4(5H)-one], the Ki in series [3] (setting [6]) was 5.6 nM; in series [4] (setting [8]), 6.2 nM.

In the case of `CC(C)[C@@H](c1ccc(C(C)(C)C)cc1)n1nc(CF)c2c(=O)[nH]c(O)nc21` [Example 49, (S)-1-(1-(4-tert-Bulylphenyl)-2-melhylpropyl)-3-(fluoromethyl)-6-hydroxy-1H-pyrazolo[3,4-d]pyrimidin-4(5H)-one], the Ki in series [3] (setting [6]) came out at 2.3 nM; in series [4] (setting [8]), 2.5 nM.

Consider `C[C@@H](c1ccc(S(F)(F)(F)(F)F)cc1)n1nc(CF)c2c(=O)[nH]c(O)nc21` [Example 50, (S)-3-(Fluoromethyl)-6-hydroxy-1-(1-(4-(pentafluorolhio)phenyl)ethyl)-1H-pyrazolo[3,4-d]pyrimidin-4(5H)-one], for which the Ki in series [3] (setting [6]) came to 7 nM; in series [4] (setting [8]), 6.8 nM.

Consider `Cc1ccc(C(C)n2nc(CCl)c3c(=O)[nH]c(O)nc32)cc1` (stereo not drawn) [Example 57, 3-(Chloromethyl)-6-hydroxy-1-(1-p-tolylethyl)-1H-pyrazolo[3,4-d]pyrimidin-4(5H)-one], for which the Ki in series [3] (setting [5]) came to 11 nM; in series [3] (setting [6]), 28 nM; in series [4] (setting [7]), 26 nM; in series [4] (setting [8]), 40 nM.

`Cc1nn(C(C)c2ccc(C(F)(F)F)cc2)c2nc(O)[nH]c(=O)c12` (stereo not drawn) [Example 58, 6-Hydroxy-3-methyl-1-{1-[4-(trifluoromethyl)phenyl]ethyl}-1,5-dihydro-4H-pyrazolo[3,4-d]pyrimidin-4-one]: the inhibition constant (Ki) stood at 49 nM in series [3] (setting [5]) and 69 nM in series [4] (setting [7]).

With `COc1nc2c(c(C)nn2C(C)c2ccc(C(F)(F)F)cc2)c(=O)[nH]1` (stereo not drawn) [Example 59, 6-Methoxy-3-methyl-1-{1-[4-(trifluoromethyl)phenyl]ethyl}-1,5-dihydro-4H-pyrazolo[3,4-d]pyrimidin-4-one], the Ki is 760 nM in series [3] (setting [5]) and 1140 nM in series [4] (setting [7]).

With `Cc1nn(C(C)c2ccc(OC(F)(F)F)cc2)c2nc(O)[nH]c(=O)c12` (stereo not drawn) [Example 60, 6-Hydroxy-3-methyl-1-{1-[4-(trifluoromethoxy)phenyl]ethyl}-1,5-dihydro-4H-pyrazolo[3,4-d]pyrimidin-4-one], the Ki is 207 nM in series [3] (setting [5]) and 278 nM in series [4] (setting [7]).

Turning to `C[C@@H](c1ccc(C(F)(F)F)cc1)n1nc(CO)c2c(=O)[nH]c(N(C)C)nc21` [Example 154, (S)-6-(Dimethylamino)-3-(hydroxymethyl)-1-(1-(4-(trifluoromethyl)phenyl)ethyl)-1H-pyrazolo[3,4-d]pyrimidin-4(5H)-one], the figures for the inhibitory constant (Ki) in series [3] (setting [6]) and in series [4] (setting [8]) were 0.55 nM and 0.57 nM, respectively.

Regarding `C[C@@H](c1ccc(C(F)(F)F)cc1)n1nc(CO)c2c(=O)[nH]c(N3CCCC3)nc21` [Example 156, 3-(Hydroxymethyl)-6-pyrrolidin-1-yl-1-{(1S)-1-[4-(trifluoromethyl)phenyl]ethyl}-1,5-dihydro-4H-pyrazolo[3,4-d]pyrimidin-4-one], the results for the Ki in series [3] (setting [6]) and in series [4] (setting [8]) were 0.5 nM and 0.47 nM, respectively.

Turning to `C[C@@H](c1ccc(C(F)(F)F)cc1)n1nc(CO)c2c(=O)[nH]c(N3CC(F)C3)nc21` [Example 161, 6-(3-Fluoroazetidin-1-yl)-3-(hydroxymethyl)-1-{(1S)-1-[4-(trifluoromethyl)phenyl]ethyl}-1,5-dihydro-4H-pyrazolo[3,4-d]pyrimidin-4-one], the Ki in series [3] (setting [6]) was 1.6 nM; in series [4] (setting [8]) it was 1.9 nM.

On to `C[C@@H](c1ccc(C(F)(F)F)cc1)n1nc(CF)c2c(=O)[nH]c(N3CCC3)nc21` [Example 225, 6-Azetidin-1-yl-3-(fluoromethyl)-1-{(1S)-1-[4-(trifluoromethyl)phenyl]ethyl}-1,5-dihydro-4H-pyrazolo[3,4-d]pyrimidin-4-one], for which the Ki was found to be 0.41 nM in series [3] (setting [6]) and 0.4 nM in series [4] (setting [8]).

`C[C@@H](c1ccc(C(F)(F)F)cc1)n1nc(CF)c2c(=O)[nH]c(N3CCCC3)nc21` [Example 226, 3-(Fluoromethyl)-6-pyrrolidin-1-yl-1-{(1S)-1-[4-(trifluoromethyl)phenyl]ethyl}-1,5-dihydro-4H-pyrazolo[3,4-d]pyrimidin-4-one]: the Ki in series [3] (setting [6]) was 0.22 nM; in series [4] (setting [8]), 0.26 nM.

As to `Cc1nn(C(C)c2ccc(C(F)(F)F)cc2)c2nc(N3CCCC3)[nH]c(=O)c12` (stereo not drawn) [Example 268, 3-Methyl-6-pyrrolidin-1-yl-1-{1-[4-(trifluoromethyl)phenyl]ethyl}-1,5-dihydro-4H-pyrazolo[3,4-d]pyrimidin-4-one], the Ki in series [3] (setting [5]) is 5.6 nM; in series [4] (setting [7]), 8 nM.

Turning to `CNc1nc2c(c(C)nn2C(C)c2ccc(C(F)(F)F)cc2)c(=O)[nH]1` (stereo not drawn) [Example 269, 3-Methyl-6-(methylamino)-1-(1-(4-(trifluoromethyl)phenyl)ethyl)-1,5-dihydro-4H-pyrazolo[3,4-d]pyrimidin-4-one], the Ki amounted to 85 nM in series [3] (setting [5]) and 139 nM in series [4] (setting [7]).

Consider `Cc1nn(C(C)c2ccc(C(F)(F)F)cc2)c2nc(N(C)C)[nH]c(=O)c12` (stereo not drawn) [Example 270, 6-(Dimethylamino)-3-methyl-1-{1-[4-(trifluoromethyl)phenyl]ethyl}-1,5-dihydro-4H-pyrazolo[3,4-d]pyrimidin-4-one], for which the Ki in series [3] (setting [5]) stood at 3.9 nM; in series [4] (setting [7]), 6 nM.

As for `C[C@@H](c1ccc(C(F)(F)F)cc1)n1nc(CCO)c2c(=O)[nH]c(O)nc21` [Example 293, (S)-6-Hydroxy-3-(2-hydroxyethyl)-1-(1-(4-(trifluoromethyl)phenyl)ethyl)-1H-pyrazolo[3,4-d]pyrimidin-4(5H)-one], the values for the Ki in series [3] (setting [6]) and in series [4] (setting [8]) were 10 nM and 12 nM, respectively.

In the case of `C[C@@H](c1ccc(C(F)(F)F)cc1)n1nc(CC#N)c2c(=O)[nH]c(O)nc21` [Example 298, (S)-2-(6-Hydroxy-4-oxo-1-(1-(4-(trifluoromethyl)phenyl)ethyl)-4,5-dihydro-1H-pyrazolo[3,4-d]pyrimidin-3-yl)acetonitrile], the results for the Ki in series [3] (setting [6]) and in series [4] (setting [8]) were 4.7 nM and 5 nM, respectively.

Regarding `COCc1nn([C@@H](C)c2ccc(C(F)(F)F)cc2)c2nc(O)[nH]c(=O)c12` [Example 304, (S)-6-Hydroxy-3-(methoxymethyl)-1-(1-(4-(trifluoromethyl)phenyl)ethyl)-1,5-dihydro-4H-pyrazolo[3,4-d]pyrimidin-4-one], the Ki in series [3] (setting [6]) came out at 46 nM; in series [4] (setting [8]) it was 43 nM.
